Measurements published in patent US20090042964A1, “AMINO-5-[SUBSTITUTED-4-(DIFLUOROMETHOXY)PHENYL]-5-PHENYLIMIDAZOLONE COMPOUNDS AS BETA-SECRETASE INHIBITORS” (Wyeth, priority 2007, published 2009).

Target: human BACE1 (Homo sapiens, UniProt P56817)
Assay: Fluorescent kinetic assay, evaluation of BACE1 binding affinity of test compounds
Format: biochemical
Conditions: 10 nM human BACE1, 25 μM substrate WABC-6, pH 4.5, room temperature; read-out: BACE1 IC50
In short: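 Kinetic fluorescence assay: enzyme added last to inhibitor and substrate mix, reading started immediately; substrate at 100 μM working dilution (25 μL in 100 μL total). Buffer 66.7 mM Na-acetate pH 4.5 with 0.0667% CHAPS for inhibitor and enzyme dilutions; enzyme stock quantified at 280 nm.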

Sequence of human BACE1 (P56817 46-501): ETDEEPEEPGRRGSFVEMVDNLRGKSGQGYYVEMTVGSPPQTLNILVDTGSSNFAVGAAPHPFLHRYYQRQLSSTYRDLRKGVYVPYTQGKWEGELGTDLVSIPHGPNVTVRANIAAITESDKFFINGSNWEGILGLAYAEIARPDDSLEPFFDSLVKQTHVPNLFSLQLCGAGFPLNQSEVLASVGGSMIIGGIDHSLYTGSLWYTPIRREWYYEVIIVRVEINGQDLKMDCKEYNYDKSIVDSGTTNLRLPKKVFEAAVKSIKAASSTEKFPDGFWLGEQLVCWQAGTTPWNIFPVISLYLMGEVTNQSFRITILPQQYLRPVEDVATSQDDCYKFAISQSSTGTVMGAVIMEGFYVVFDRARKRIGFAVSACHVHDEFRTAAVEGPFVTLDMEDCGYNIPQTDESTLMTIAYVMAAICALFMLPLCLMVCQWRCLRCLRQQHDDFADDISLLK

Row | SMILES | IC50
1 | Cc1cc(C2(c3ccc(F)c(OCCCF)c3)N=C(N)N(C)C2=O)ccc1OC(F)F (stereo not shown) [Example 108, 2-Amino-5-[4-(difluoromethoxy)-3-methylphenyl]-5-[4-fluoro-3-(3-fluoropropoxy)phenyl]-3-methyl-3,5-dihydro-4H-imidazol-4-one] | < 100 nM
2 | Cc1cc(C2(c3ccc(F)c(OCCF)c3)N=C(N)N(C)C2=O)ccc1OC(F)F (stereo not shown) [Example 109, 2-Amino-5-[4-(difluoromethoxy)-3-methylphenyl]-5-[4-fluoro-3-(2-fluoroethoxy)phenyl]-3-methyl-3,5-dihydro-4H-imidazol-4-one] | < 100 nM
3 | Cc1cc([C@@]2(c3ccc(F)c(OCCCF)c3)N=C(N)N(C)C2=O)ccc1OC(F)F [Example 110, (5S)-2-Amino-5-[4-(difluoromethoxy)-3-methylphenyl]-5-[4-fluoro-3-(3-fluoropropoxy)phenyl]-3-methyl-3,5-dihydro-4H-imidazol-4-one] | 110 to 1000 nM
4 | Cc1cc([C@]2(c3ccc(F)c(OCCCF)c3)N=C(N)N(C)C2=O)ccc1OC(F)F [Example 111, (5R)-2-Amino-5-[4-(difluoromethoxy)-3-methylphenyl]-5-[4-fluoro-3-(3-fluoropropoxy)phenyl]-3-methyl-3,5-dihydro-4H-imidazol-4-one] | < 100 nM
5 | Cc1cc([C@]2(c3ccc(F)c(OCCF)c3)N=C(N)N(C)C2=O)ccc1OC(F)F [Example 113, (5R)-2-Amino-5-[4-(difluoromethoxy)-3-methylphenyl]-5-[4-fluoro-3-(2-fluoroethoxy)phenyl]-3-methyl-3,5-dihydro-4H-imidazol-4-one] | < 100 nM
6 | CCCOc1cc([C@]2(c3ccc(OC(F)F)c(C)c3)N=C(N)N(C)C2=O)ccc1F [Example 115, (5S)-2-Amino-5-[4-(difluoromethoxy)-3-methylphenyl]-5-(4-fluoro-3-propoxyphenyl)-3-methyl-3,5-dihydro-4H-imidazol-4-one] | 110 to 1000 nM
7 | CCc1cc([C@@]2(c3ccc(F)c(OCC(F)F)c3)N=C(N)N(C)C2=O)ccc1OC(F)F [Example 118, (5S)-2-Amino-5-[3-(2,2-difluoroethoxy)-4-fluorophenyl]-5-[4-(difluoromethoxy)-3-ethylphenyl]-3-methyl-3,5-dihydro-4H-imidazol-4-one] | > 1000 nM
8 | CN1C(=O)[C@@](c2ccc(F)c(OCC(F)F)c2)(c2ccc(OC(F)F)c(C3CC3)c2)N=C1N [Example 124, (5S)-2-Amino-5-[3-cyclopropyl-4-(difluoromethoxy)phenyl]-5-[3-(2,2-difluoroethoxy)-4-fluorophenyl]-3-methyl-3,5-dihydro-4H-imidazol-4-one] | > 1000 nM
9 | CN1C(=O)[C@](c2ccc(F)c(OCC(F)F)c2)(c2ccc(OC(F)F)c(C3CC3)c2)N=C1N [Example 125, (5R)-2-Amino-5-[3-cyclopropyl-4-(difluoromethoxy)phenyl]-5-[3-(2,2-difluoroethoxy)-4-fluorophenyl]-3-methyl-3,5-dihydro-4H-imidazol-4-one] | < 100 nM
10 | Cc1cc(C2(c3cccc(OCCC(F)F)c3)N=C(N)N(C)C2=O)ccc1OC(F)F (stereo not shown) [Example 126, 2-Amino-5-[4-(difluoromethoxy)-3-methylphenyl]-5-[3-(3,3-difluoropropoxy)phenyl]-3-methyl-3,5-dihydro-4H-imidazol-4-one] | < 100 nM
11 | Cc1cc([C@@]2(c3cccc(OCCC(F)F)c3)N=C(N)N(C)C2=O)ccc1OC(F)F [Example 128, (5S)-2-Amino-5-[4-(difluoromethoxy)-3-methylphenyl]-5-[3-(3,3-difluoropropoxy)phenyl]-3-methyl-3,5-dihydro-4H-imidazol-4-one] | 110 to 1000 nM
12 | CN1C(=O)C(c2ccc(OC(F)F)c(CCF)c2)(c2ccc(F)c(OCC(F)F)c2)N=C1N (stereo not shown) [Example 129, 2-Amino-5-[3-(2,2-difluoroethoxy)-4-fluorophenyl]-5-[4-(difluoromethoxy)-3-(2-fluoroethyl)phenyl]-3-methyl-3,5-dihydro-4H-imidazol-4-one] | < 100 nM
13 | Cc1cc([C@@]2(c3ccc(F)c(OCCC(F)F)c3)N=C(N)N(C)C2=O)ccc1OC(F)F [Example 131, (5S)-2-Amino-5-[4-(difluoromethoxy)-3-methylphenyl]-5-[3-(3,3-difluoropropoxy)-4-fluorophenyl]-3-methyl-3,5-dihydro-4H-imidazol-4-one] | > 1000 nM
14 | CCc1cc(C2(c3ccc(F)c(OCCC(F)F)c3)N=C(N)N(C)C2=O)ccc1OC(F)F (stereo not shown) [Example 134, 2-Amino-5-[4-(difluoromethoxy)-3-ethylphenyl]-5-[3-(3,3-difluoropropoxy)-4-fluorophenyl]-3-methyl-3,5-dihydro-4H-imidazol-4-one] | < 100 nM
15 | CCc1cc([C@@]2(c3ccc(F)c(OCCC(F)F)c3)N=C(N)N(C)C2=O)ccc1OC(F)F [Example 135, (5S)-2-Amino-5-[4-(difluoromethoxy)-3-ethylphenyl]-5-[3-(3,3-difluoropropoxy)-4-fluorophenyl]-3-methyl-3,5-dihydro-4H-imidazol-4-one] | > 1000 nM
16 | CCc1cc([C@]2(c3ccc(F)c(OCCC(F)F)c3)N=C(N)N(C)C2=O)ccc1OC(F)F [Example 136, (5R)-2-Amino-5-[4-(difluoromethoxy)-3-ethylphenyl]-5-[3-(3,3-difluoropropoxy)-4-fluorophenyl]-3-methyl-3,5-dihydro-4H-imidazol-4-one] | < 100 nM
17 | CC(C)c1cc(C2(c3ccccc3)N=C(N)N(C)C2=O)ccc1OC(F)F (stereo not shown) [Example 137, 2-Amino-5-[4-(difluoromethoxy)-3-isopropylphenyl]-3-methyl-5-phenyl-3,5-dihydro-4H-imidazol-4-one] | 110 to 1000 nM
18 | CN1C(=O)C(c2ccccc2)(c2ccc(OC(F)F)c(CCO)c2)N=C1N (stereo not shown) [Example 140, 2-Amino-5-[4-(difluoromethoxy)-3-(2-hydroxyethyl)phenyl]-3-methyl-5-phenyl-3,5-dihydro-4H-imidazol-4-one] | 110 to 1000 nM
19 | CN1C(=O)C(c2ccccc2)(c2ccc(OC(F)F)c(CCCl)c2)N=C1N (stereo not shown) [Example 141, 2-Amino-5-[4-(difluoromethoxy)-3-(2-chloroethyl)phenyl]-3-methyl-5-phenyl-3,5-dihydro-4H-imidazol-4-one] | < 100 nM
20 | COCCc1cc(C2(c3ccccc3)N=C(N)N(C)C2=O)ccc1OC(F)F (stereo not shown) [Example 142, 2-Amino-5-[4-(difluoromethoxy)-3-(2-methoxyethyl)phenyl]-3-methyl-5-phenyl-3,5-dihydro-4H-imidazol-4-one] | < 100 nM

Now from value to compound:

Row | IC50 | SMILES
21 | > 1000 nM | Cc1cc([C@@]2(c3ccc(F)c(OCCF)c3)N=C(N)N(C)C2=O)ccc1OC(F)F [Example 112, (5S)-2-Amino-5-[4-(difluoromethoxy)-3-methylphenyl]-5-[4-fluoro-3-(2-fluoroethoxy)phenyl]-3-methyl-3,5-dihydro-4H-imidazol-4-one]
22 | < 100 nM | CCCOc1cc(C2(c3ccc(OC(F)F)c(C)c3)N=C(N)N(C)C2=O)ccc1F (stereo not shown) [Example 114, 2-Amino-5-[4-(difluoromethoxy)-3-methylphenyl]-5-(4-fluoro-3-propoxyphenyl)-3-methyl-3,5-dihydro-4H-imidazol-4-one]
23 | < 100 nM | CCc1cc(C2(c3ccc(F)c(OCC(F)F)c3)N=C(N)N(C)C2=O)ccc1OC(F)F (stereo not shown) [Example 117, 2-Amino-5-[3-(2,2-difluoroethoxy)-4-fluorophenyl]-5-[4-(difluoromethoxy)-3-ethylphenyl]-3-methyl-3,5-dihydro-4H-imidazol-4-one]
24 | < 100 nM | CCc1cc([C@]2(c3ccc(F)c(OCC(F)F)c3)N=C(N)N(C)C2=O)ccc1OC(F)F [Example 119, (5R)-2-Amino-5-[3-(2,2-difluoroethoxy)-4-fluorophenyl]-5-[4-(difluoromethoxy)-3-ethylphenyl]-3-methyl-3,5-dihydro-4H-imidazol-4-one]
25 | < 100 nM | CCc1cc(C2(c3ccc(F)c(OCCCF)c3)N=C(N)N(C)C2=O)ccc1OC(F)F (stereo not shown) [Example 120, 2-Amino-5-[4-(difluoromethoxy)-3-ethylphenyl]-5-[4-fluoro-3-(3-fluoropropoxy)phenyl]-3-methyl-3,5-dihydro-4H-imidazol-4-one]
26 | > 1000 nM | CCc1cc([C@@]2(c3ccc(F)c(OCCCF)c3)N=C(N)N(C)C2=O)ccc1OC(F)F [Example 121, (5S)-2-Amino-5-[4-(difluoromethoxy)-3-ethylphenyl]-5-[4-fluoro-3-(3-fluoropropoxy)phenyl]-3-methyl-3,5-dihydro-4H-imidazol-4-one]
27 | < 100 nM | CN1C(=O)C(c2ccc(F)c(OCC(F)F)c2)(c2ccc(OC(F)F)c(C3CC3)c2)N=C1N (stereo not shown) [Example 123, 2-Amino-5-[3-cyclopropyl-4-(difluoromethoxy)phenyl]-5-[3-(2,2-difluoroethoxy)-4-fluorophenyl]-3-methyl-3,5-dihydro-4H-imidazol-4-one]
28 | < 100 nM | Cc1cc([C@]2(c3cccc(OCCC(F)F)c3)N=C(N)N(C)C2=O)ccc1OC(F)F [Example 127, (5R)-2-Amino-5-[4-(difluoromethoxy)-3-methylphenyl]-5-[3-(3,3-difluoropropoxy)phenyl]-3-methyl-3,5-dihydro-4H-imidazol-4-one]
29 | < 100 nM | Cc1cc(C2(c3ccc(F)c(OCCC(F)F)c3)N=C(N)N(C)C2=O)ccc1OC(F)F (stereo not shown) [Example 130, 2-Amino-5-[4-(difluoromethoxy)-3-methylphenyl]-5-[3-(3,3-difluoropropoxy)-4-fluorophenyl]-3-methyl-3,5-dihydro-4H-imidazol-4-one]
30 | < 100 nM | Cc1cc([C@]2(c3ccc(F)c(OCCC(F)F)c3)N=C(N)N(C)C2=O)ccc1OC(F)F [Example 132, (5R)-2-Amino-5-[4-(difluoromethoxy)-3-methylphenyl]-5-[3-(3,3-difluoropropoxy)-4-fluorophenyl]-3-methyl-3,5-dihydro-4H-imidazol-4-one]
31 | < 100 nM | CN1C(=O)C(c2ccc(F)c(OCCC(F)F)c2)(c2ccc(OC(F)F)c(C3CC3)c2)N=C1N (stereo not shown) [Example 133, 2-Amino-5-[3-cyclopropyl-4-(difluoromethoxy)phenyl]-5-[3-(3,3-difluoropropoxy)-4-fluorophenyl]-3-methyl-3,5-dihydro-4H-imidazol-4-one]
